Source: patent US10988523B2, “Modified lipidated Relaxin B chain peptides and their therapeutic use” (Sanofi, priority 2018, dated 2021)
*1 amine or outer side, *2 acyl side, *3 side chain or, on linkers, in order; H or OH if unused. Where a SMILES comes first, the peptide text is derived from it. Side-chain parts run from the residue outwards. [ ]: non-standard residue; d: D form. The star is where a group is joined. X18 = CCCCCCCCCCCCCCCC(=O)N[C@@H](CCC(=O)N[C@@H](CCC(=O)N[C@@H](CCC(=O)NCCCC[C@H](NC(=O)CCC(=O)NCCCOCCOCCOCCCNC(=O)CCC(=O)NCCCOCCOCCOCCCNC(=O)CCC(=O)NCCCOCCOCCOCCCN*)C(N)=O)C(=O)O)C(=O)O)C(=O)O; X14 = CCCCCCCCCCCCCCC(=O)N[C@@H](CCC(=O)N[C@@H](CCC(=O)N[C@@H](CCC(=O)NCCCC[C@H](NC(=O)CCC(=O)NCCCOCCOCCOCCCNC(=O)CCC(=O)NCCCOCCOCCOCCCNC(=O)CCC(=O)NCCCOCCOCCOCCCN*)C(N)=O)C(=O)O)C(=O)O)C(=O)O; X17 = CCCCCCCCCCCCCCC(=O)N[C@@H](CCC(=O)N[C@@H](CCC(=O)N[C@@H](CCC(=O)NCCCOCCOCCOCCCNC(=O)CCC(=O)NCCCOCCOCCOCCCNC(=O)CCC(=O)NCCCOCCOCCOCCCN*)C(=O)O)C(=O)O)C(=O)O; X8 = CCCCCCCCCCCCCCCC(=O)N[C@@H](CCC(=O)N[C@@H](CCC(=O)N[C@@H](CCC(=O)NCCCOCCOCCOCCCNC(=O)CCC(=O)NCCCOCCOCCOCCCNC(=O)CCC(=O)NCCCOCCOCCOCCCN*)C(=O)O)C(=O)O)C(=O)O; γGlu = O=C(O)[C@H](CCC(=O)[*:2])N[*:1]; Pentadecanoyl = CCCCCCCCCCCCCCC(=O)*; Palmitoyl = CCCCCCCCCCCCCCCC(=O)*; Myristoyl = CCCCCCCCCCCCCC(=O)*; Suc = O=C(CCC(=O)[*:2])[*:1]; αMeK = C[C@](N)(CCCCN)C(=O)O; Nle = CCCC[C@H](N)C(=O)O; AEEA = NCCOCCOCC(=O)O; Aib = CC(C)(N)C(=O)O

Molecular target: T1, RXFP1 (Homo sapiens, UniProt Q9HBX9)
T1 construct: OVCAR5 cells expressing endogenous RXFP1; endogenous in cells; host or cells: OVCAR5 cells
T1 sequence (Q9HBX9 1-757): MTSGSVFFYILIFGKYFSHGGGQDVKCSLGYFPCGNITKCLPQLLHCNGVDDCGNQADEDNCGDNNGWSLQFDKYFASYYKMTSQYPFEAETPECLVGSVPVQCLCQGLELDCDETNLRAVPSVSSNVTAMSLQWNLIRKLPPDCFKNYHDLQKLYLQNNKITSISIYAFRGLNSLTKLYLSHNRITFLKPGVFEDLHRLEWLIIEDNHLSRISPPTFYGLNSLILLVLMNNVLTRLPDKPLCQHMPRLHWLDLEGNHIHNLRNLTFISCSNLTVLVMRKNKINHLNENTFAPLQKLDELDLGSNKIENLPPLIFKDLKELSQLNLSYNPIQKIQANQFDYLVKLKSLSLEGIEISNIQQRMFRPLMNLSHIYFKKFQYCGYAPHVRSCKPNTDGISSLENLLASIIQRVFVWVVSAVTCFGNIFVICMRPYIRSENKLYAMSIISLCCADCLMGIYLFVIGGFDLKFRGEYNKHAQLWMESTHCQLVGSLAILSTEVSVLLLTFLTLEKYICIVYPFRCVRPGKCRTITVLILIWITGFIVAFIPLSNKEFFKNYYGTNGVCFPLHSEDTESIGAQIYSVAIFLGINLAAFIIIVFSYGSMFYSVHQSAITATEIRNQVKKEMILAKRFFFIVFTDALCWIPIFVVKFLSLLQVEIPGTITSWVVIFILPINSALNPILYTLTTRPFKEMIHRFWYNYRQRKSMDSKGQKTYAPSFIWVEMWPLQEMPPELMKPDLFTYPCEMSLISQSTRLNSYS
Assay: OVCAR5 cAMP assay (HTRF), RXFP1 agonist activity
Type: cell-based
Conditions: for EC50: OVCAR5 cells, cAMP HTRF, read-out: EC50 (nM), OVCAR 5 cells (cAMP); for Emax: OVCAR-5, maximal cAMP relative to H2-relaxin maximum (100%), read-out: EMax, OVCAR 5 cells (cAMP)
Method in brief: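 OVCAR5 cells (endogenous RXFP1) pretreated 40 min at 37° C with 1 mM IBMX, then exposed to peptides in serum-free medium for 30 min at 37° C. Lysate cAMP read by HTRF; EC50 from variable-slope sigmoidal fit; Emax as % of H2-relaxin maximal cAMP in same run.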

## CCCCCCCCCCCCCCCC(=O)N[C@@H](CCC(=O)N[C@@H](CCC(=O)N[C@@H](CCC(=O)NCCCOCCOCCOCCCNC(=O)CCC(=O)NCCCOCCOCCOCCCNC(=O)CCC(=O)NCCCOCCOCCOCCCNC(=O)CCC(=O)NCCCC[C@H](NC(=O)[C@H](CCCCNC(C)=O)NC(=O)[C@H](C)NC(=O)[C@H](CCCNC(=N)N)NC(=O)[C@](C)(CCCCN)NC(=O)[C@H](CO)NC(=O)[C@H](Cc1ccccc1)NC(=O)[C@@H](NC(=O)[C@H](CO)NC(=O)[C@H](CCCC)NC(=O)CNC(=O)[C@H](CCC(=O)O)NC(=O)C(C)(C)NC(=O)C(C)(C)NC(=O)[C@@H](NC(=O)[C@H](CCCCNC(C)=O)NC(=O)[C@H](C)NC(=O)[C@H](CCCNC(=N)N)NC(=O)[C@@H](NC(=O)[C@H](CCCCN)NC(=O)[C@H](CCC(=O)O)NC(=O)[C@H](CCCNC(=N)N)NC(=O)CNC(=O)[C@H](CCC(=O)O)NC(=O)[C@H](CC(C)C)NC(C)=O)C(C)C)[C@@H](C)CC)[C@@H](C)O)C(N)=O)C(=O)O)C(=O)O)C(=O)O [compound 183] (Ac-LEGREKVRAK(Ac)I[Aib][Aib]EG[Nle]STFS[αMeK]RAK(Ac)K([Suc-X8])-NH2)
  EC50: 0.08 nM
  Emax: 94%

## CCCCCCCCCCCCCCCC(=O)N[C@@H](CCC(=O)N[C@@H](CCC(=O)NCCCC[C@H](NC(=O)CC[C@H](NC(=O)CC[C@H](NC(=O)COCCOCCNC(=O)COCCOCCNC(=O)COCCOCCNC(=O)COCCOCCNC(=O)[C@H](CCCCNC(C)=O)NC(=O)[C@H](C)NC(=O)[C@H](CCCNC(=N)N)NC(=O)[C@](C)(CCCCN)NC(=O)[C@H](CO)NC(=O)[C@H](Cc1ccccc1)NC(=O)[C@@H](NC(=O)[C@H](CO)NC(=O)[C@H](CCC(N)=O)NC(=O)CNC(=O)[C@H](CCC(=O)O)NC(=O)C(C)(C)NC(=O)C(C)(C)NC(=O)[C@@H](NC(=O)[C@H](CCCCNC(C)=O)NC(=O)[C@H](C)NC(=O)[C@H](CCCNC(=N)N)NC(=O)[C@@H](NC(=O)[C@H](CCCCN)NC(=O)[C@H](CCC(=O)O)NC(=O)[C@H](CCCNC(=N)N)NC(=O)CNC(=O)[C@H](CCC(=O)O)NC(=O)[C@H](CC(C)C)NC(C)=O)C(C)C)[C@@H](C)CC)[C@@H](C)O)C(=O)O)C(=O)O)C(N)=O)C(=O)O)C(=O)O [compound 185] (Ac-LEGREKVRAK(Ac)I[Aib][Aib]EGQSTFS[αMeK]RAK(Ac)[AEEA][AEEA][AEEA][AEEA][γGlu][γGlu]K([γGlu-γGlu-Palmitoyl])-NH2)
  EC50: 0.05 nM
  Emax: 100%

## CCCCCCCCCCCCCCC(=O)N[C@@H](CCC(=O)N[C@@H](CCC(=O)NCCCC[C@H](NC(=O)CC[C@H](NC(=O)CC[C@H](NC(=O)COCCOCCNC(=O)COCCOCCNC(=O)COCCOCCNC(=O)COCCOCCNC(=O)[C@H](CCCCNC(C)=O)NC(=O)[C@H](C)NC(=O)[C@H](CCCNC(=N)N)NC(=O)[C@](C)(CCCCN)NC(=O)[C@H](CO)NC(=O)[C@H](Cc1ccccc1)NC(=O)[C@@H](NC(=O)[C@H](CO)NC(=O)[C@H](CCC(N)=O)NC(=O)CNC(=O)[C@H](CCC(=O)O)NC(=O)C(C)(C)NC(=O)C(C)(C)NC(=O)[C@@H](NC(=O)[C@H](CCCCNC(C)=O)NC(=O)[C@H](C)NC(=O)[C@H](CCCNC(=N)N)NC(=O)[C@@H](NC(=O)[C@H](CCCCN)NC(=O)[C@H](CCC(=O)O)NC(=O)[C@H](CCCNC(=N)N)NC(=O)CNC(=O)[C@H](CCC(=O)O)NC(=O)[C@H](CC(C)C)NC(C)=O)C(C)C)[C@@H](C)CC)[C@@H](C)O)C(=O)O)C(=O)O)C(N)=O)C(=O)O)C(=O)O [compound 186] (Ac-LEGREKVRAK(Ac)I[Aib][Aib]EGQSTFS[αMeK]RAK(Ac)[AEEA][AEEA][AEEA][AEEA][γGlu][γGlu]K([γGlu-γGlu-Pentadecanoyl])-NH2)
  EC50: 0.18 nM
  Emax: 100%

## CCCCCCCCCCCCCCCC(=O)N[C@@H](CCC(=O)N[C@@H](CCC(=O)N[C@@H](CCC(=O)NCCCC[C@H](NC(=O)CCC(=O)NCCCOCCOCCOCCCNC(=O)CCC(=O)NCCCOCCOCCOCCCNC(=O)CCC(=O)NCCCOCCOCCOCCCNC(=O)[C@H](CCCCNC(C)=O)NC(=O)[C@H](C)NC(=O)[C@H](CCCNC(=N)N)NC(=O)[C@](C)(CCCCN)NC(=O)[C@H](CO)NC(=O)[C@H](Cc1ccccc1)NC(=O)[C@@H](NC(=O)[C@H](CO)NC(=O)[C@H](CCCC)NC(=O)CNC(=O)[C@H](CCC(=O)O)NC(=O)C(C)(C)NC(=O)C(C)(C)NC(=O)[C@@H](NC(=O)[C@H](CCCCNC(C)=O)NC(=O)[C@H](C)NC(=O)[C@H](CCCNC(=N)N)NC(=O)[C@@H](NC(=O)[C@H](CCCCN)NC(=O)[C@H](CCC(=O)O)NC(=O)[C@H](CCCNC(=N)N)NC(=O)CNC(=O)[C@H](CCC(=O)O)NC(=O)[C@H](CC(C)C)NC(C)=O)C(C)C)[C@@H](C)CC)[C@@H](C)O)C(N)=O)C(=O)O)C(=O)O)C(=O)O [compound 187] (Ac-LEGREKVRAK(Ac)I[Aib][Aib]EG[Nle]STFS[αMeK]RAK(Ac)-X18)
  Emax: 100%

## CCCCCCCCCCCCCCC(=O)N[C@@H](CCC(=O)N[C@@H](CCC(=O)N[C@@H](CCC(=O)NCCCC[C@H](NC(=O)CCC(=O)NCCCOCCOCCOCCCNC(=O)CCC(=O)NCCCOCCOCCOCCCNC(=O)CCC(=O)NCCCOCCOCCOCCCNC(=O)[C@H](CCCCNC(C)=O)NC(=O)[C@H](C)NC(=O)[C@H](CCCNC(=N)N)NC(=O)[C@](C)(CCCCN)NC(=O)[C@H](CO)NC(=O)[C@H](Cc1ccccc1)NC(=O)[C@@H](NC(=O)[C@H](CO)NC(=O)[C@H](CCCC)NC(=O)CNC(=O)[C@H](CCC(=O)O)NC(=O)C(C)(C)NC(=O)C(C)(C)NC(=O)[C@@H](NC(=O)[C@H](CCCCNC(C)=O)NC(=O)[C@H](C)NC(=O)[C@H](CCCNC(=N)N)NC(=O)[C@@H](NC(=O)[C@H](CCCCN)NC(=O)[C@H](CCC(=O)O)NC(=O)[C@H](CCCNC(=N)N)NC(=O)CNC(=O)[C@H](CCC(=O)O)NC(=O)[C@H](CC(C)C)NC(C)=O)C(C)C)[C@@H](C)CC)[C@@H](C)O)C(N)=O)C(=O)O)C(=O)O)C(=O)O [compound 188] (Ac-LEGREKVRAK(Ac)I[Aib][Aib]EG[Nle]STFS[αMeK]RAK(Ac)-X14)
  Emax: 100%

## CCCCCCCCCCCCCCC(=O)N[C@@H](CCC(=O)N[C@@H](CCC(=O)N[C@@H](CCC(=O)NCCCOCCOCCOCCCNC(=O)CCC(=O)NCCCOCCOCCOCCCNC(=O)CCC(=O)NCCCOCCOCCOCCCNC(=O)CCC(=O)NCCCC[C@H](NC(=O)[C@H](CCCCNC(C)=O)NC(=O)[C@H](C)NC(=O)[C@H](CCCNC(=N)N)NC(=O)[C@](C)(CCCCN)NC(=O)[C@H](CO)NC(=O)[C@H](Cc1ccccc1)NC(=O)[C@@H](NC(=O)[C@H](CO)NC(=O)[C@H](CCC(N)=O)NC(=O)CNC(=O)[C@H](CCC(=O)O)NC(=O)C(C)(C)NC(=O)C(C)(C)NC(=O)[C@@H](NC(=O)[C@H](CCCCNC(C)=O)NC(=O)[C@H](C)NC(=O)[C@H](CCCNC(=N)N)NC(=O)[C@@H](NC(=O)[C@H](CCCCN)NC(=O)[C@H](CCC(=O)O)NC(=O)[C@H](CCCNC(=N)N)NC(=O)CNC(=O)[C@H](CCC(=O)O)NC(=O)[C@H](CC(C)C)NC(C)=O)C(C)C)[C@@H](C)CC)[C@@H](C)O)C(N)=O)C(=O)O)C(=O)O)C(=O)O [compound 189] (Ac-LEGREKVRAK(Ac)I[Aib][Aib]EGQSTFS[αMeK]RAK(Ac)K([Suc-X17])-NH2)
  Emax: 100%

## CCCCCCCCCCCCCC(=O)N[C@@H](CCC(=O)N[C@@H](CCC(=O)N[C@@H](CCC(=O)N[C@@H](CCC(=O)NCCCC[C@H](NC(=O)COCCOCCNC(=O)COCCOCCNC(=O)COCCOCCNC(=O)COCCOCCNC(=O)[C@H](CCCCNC(C)=O)NC(=O)[C@H](C)NC(=O)[C@H](CCCNC(=N)N)NC(=O)[C@](C)(CCCCN)NC(=O)[C@H](CO)NC(=O)[C@H](Cc1ccccc1)NC(=O)[C@@H](NC(=O)[C@H](CO)NC(=O)[C@H](CCC(N)=O)NC(=O)CNC(=O)[C@H](CCC(=O)O)NC(=O)C(C)(C)NC(=O)C(C)(C)NC(=O)[C@@H](NC(=O)[C@H](CCCCNC(C)=O)NC(=O)[C@H](C)NC(=O)[C@H](CCCNC(=N)N)NC(=O)[C@@H](NC(=O)[C@H](CCCCN)NC(=O)[C@H](CCC(=O)O)NC(=O)[C@H](CCCNC(=N)N)NC(=O)CNC(=O)[C@H](CCC(=O)O)NC(=O)[C@H](CC(C)C)NC(C)=O)C(C)C)[C@@H](C)CC)[C@@H](C)O)C(N)=O)C(=O)O)C(=O)O)C(=O)O)C(=O)O [compound 190] (Ac-LEGREKVRAK(Ac)I[Aib][Aib]EGQSTFS[αMeK]RAK(Ac)[AEEA][AEEA][AEEA][AEEA]K([γGlu-γGlu-γGlu-γGlu-Myristoyl])-NH2)
  Emax: 93%
